The record followed here is US20250353864A1, “INDAZOLE CONTAINING MACROCYCLES AND THEIR USE” (BLOSSOMHILL THERAPEUTICS, INC., priority 2022, published 2025).

Common to all, as to format: biochemical
Assay [1] deals with EGFR L858R/T790M/C797S mutant (Homo sapiens (Human), UniProt P00533, C797S/L858R/T790M). Briefly: HotSpot radiometric kinase assay, EGFR L858R/T790M/C797S mutant. The note with it: 10 μM ATP. In a few lines: (§1)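 Radiometric filter-binding assay with EGFR mutant kinase/substrate pairs in 20 mM Hepes pH 7.5 with Mg, EGTA, Brij35, BSA, Na3VO4, DTT, 1% DMSO. Compound preincubated ~20 min, then ATP/^33P-ATP added at 10 μM final. Reaction 120 min at room temperature, spotted on P81 paper; IC50 from curve fits.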
Sequence of EGFR L858R/T790M/C797S mutant (P00533 25-1210 T790M/C797S/L858R): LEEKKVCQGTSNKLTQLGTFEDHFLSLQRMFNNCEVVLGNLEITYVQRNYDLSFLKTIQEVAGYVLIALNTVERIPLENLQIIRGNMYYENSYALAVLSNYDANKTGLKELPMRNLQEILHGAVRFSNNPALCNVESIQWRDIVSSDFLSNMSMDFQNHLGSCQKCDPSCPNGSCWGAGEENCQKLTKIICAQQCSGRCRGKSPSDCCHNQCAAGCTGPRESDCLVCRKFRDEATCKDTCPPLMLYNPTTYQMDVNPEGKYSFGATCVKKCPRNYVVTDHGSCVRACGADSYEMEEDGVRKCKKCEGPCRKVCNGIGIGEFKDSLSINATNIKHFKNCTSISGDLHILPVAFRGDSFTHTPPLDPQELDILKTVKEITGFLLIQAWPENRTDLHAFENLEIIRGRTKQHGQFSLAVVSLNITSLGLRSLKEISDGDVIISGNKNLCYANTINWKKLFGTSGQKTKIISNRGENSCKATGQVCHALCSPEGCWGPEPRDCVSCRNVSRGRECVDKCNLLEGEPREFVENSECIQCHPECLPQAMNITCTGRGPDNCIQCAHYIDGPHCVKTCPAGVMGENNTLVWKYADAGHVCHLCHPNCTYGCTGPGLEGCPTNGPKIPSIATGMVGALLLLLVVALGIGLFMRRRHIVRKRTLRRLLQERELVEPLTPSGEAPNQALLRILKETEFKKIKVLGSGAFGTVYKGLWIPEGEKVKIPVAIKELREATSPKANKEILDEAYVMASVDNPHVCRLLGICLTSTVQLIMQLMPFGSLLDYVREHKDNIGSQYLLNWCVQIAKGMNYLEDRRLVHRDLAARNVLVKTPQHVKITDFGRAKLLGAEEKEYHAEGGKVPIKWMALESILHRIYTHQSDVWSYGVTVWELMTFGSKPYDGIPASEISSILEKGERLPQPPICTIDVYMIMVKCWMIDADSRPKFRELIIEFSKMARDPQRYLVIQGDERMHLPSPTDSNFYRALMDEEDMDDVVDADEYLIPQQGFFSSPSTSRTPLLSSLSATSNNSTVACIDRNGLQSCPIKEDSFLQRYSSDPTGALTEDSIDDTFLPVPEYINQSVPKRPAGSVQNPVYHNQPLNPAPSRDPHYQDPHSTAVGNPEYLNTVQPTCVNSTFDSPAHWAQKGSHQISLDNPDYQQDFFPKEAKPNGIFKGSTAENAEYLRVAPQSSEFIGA

The target in a further assay is EGFR Δ746-750 mutant (Homo sapiens (Human), UniProt P00533, DEL746-750). Nature of the assay: HotSpot radiometric kinase assay, EGFR Δ746-750 mutant. The note with it: 10 μM ATP. In a few lines:
as §1

A further assay deals with EGFR L858R mutant (Homo sapiens (Human), UniProt P00533, L858R). Briefly: HotSpot radiometric kinase assay, EGFR L858R mutant. The note with it: 10 μM ATP. The procedure, abridged: as §1
A further assay concerns the target EGFR WT (Homo sapiens (Human), UniProt P00533). Briefly: HotSpot radiometric kinase assay (Reaction Biology), EGFR WT. The note with it: 10 μM ATP. The procedure, abridged: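 IC50 values derive from curve fits of 33P incorporation measured by P81 filter binding. ATP was 10 μM final; incubation lasted 120 min at room temperature after ~20 min compound preincubation.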

Assay [2] addresses EGFR Δ746-750/C797S mutant (Homo sapiens (Human), UniProt P00533, C797S/DEL746-750). Nature of the assay: HotSpot radiometric kinase assay, EGFR Δ746-750/C797S mutant. The note with it: 10 μM ATP. The procedure, abridged:
as §1

A further assay deals with EGFR L858R/T790M mutant (Homo sapiens (Human), UniProt P00533, L858R/T790M). Briefly: HotSpot radiometric kinase assay, EGFR L858R/T790M mutant. The note with it: 10 μM ATP. On the procedure: Biochemical Assays for Inhibition of Wild-Type and Mutant EGFRs
Sequence of EGFR L858R/T790M mutant (P00533 25-1210 T790M/L858R): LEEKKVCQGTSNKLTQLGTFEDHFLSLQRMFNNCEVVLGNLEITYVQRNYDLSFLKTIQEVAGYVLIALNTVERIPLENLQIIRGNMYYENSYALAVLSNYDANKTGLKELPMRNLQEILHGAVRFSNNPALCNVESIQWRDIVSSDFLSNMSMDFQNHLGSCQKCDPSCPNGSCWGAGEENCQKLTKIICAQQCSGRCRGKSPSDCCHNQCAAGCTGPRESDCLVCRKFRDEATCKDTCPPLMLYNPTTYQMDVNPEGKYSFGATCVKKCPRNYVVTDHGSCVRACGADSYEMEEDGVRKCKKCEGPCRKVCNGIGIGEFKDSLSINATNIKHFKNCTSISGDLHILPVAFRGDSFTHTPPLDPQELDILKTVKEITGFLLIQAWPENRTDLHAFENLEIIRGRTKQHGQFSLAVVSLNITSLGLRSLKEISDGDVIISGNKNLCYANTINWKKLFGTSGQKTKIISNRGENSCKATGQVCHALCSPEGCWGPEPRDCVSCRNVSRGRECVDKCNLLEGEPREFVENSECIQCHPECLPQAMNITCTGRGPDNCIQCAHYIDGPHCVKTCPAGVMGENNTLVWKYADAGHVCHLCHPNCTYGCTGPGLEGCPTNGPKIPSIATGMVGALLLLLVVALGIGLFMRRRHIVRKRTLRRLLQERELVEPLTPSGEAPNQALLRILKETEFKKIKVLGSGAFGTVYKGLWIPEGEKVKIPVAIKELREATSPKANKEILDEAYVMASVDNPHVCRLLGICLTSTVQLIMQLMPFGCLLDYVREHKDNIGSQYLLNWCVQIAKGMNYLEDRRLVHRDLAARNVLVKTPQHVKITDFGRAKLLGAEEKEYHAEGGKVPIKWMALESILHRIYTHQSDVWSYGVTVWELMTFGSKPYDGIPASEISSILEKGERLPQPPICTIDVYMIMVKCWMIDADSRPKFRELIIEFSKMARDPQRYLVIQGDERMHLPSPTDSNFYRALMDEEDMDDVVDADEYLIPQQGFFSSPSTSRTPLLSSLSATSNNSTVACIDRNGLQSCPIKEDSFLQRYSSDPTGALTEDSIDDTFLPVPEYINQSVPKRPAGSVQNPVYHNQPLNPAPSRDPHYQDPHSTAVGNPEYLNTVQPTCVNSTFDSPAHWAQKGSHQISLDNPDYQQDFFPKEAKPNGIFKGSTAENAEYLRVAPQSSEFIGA
Briefly, specific kinase/substrate pairs along with required cofactors were prepared in reaction buffer; 20 mM Hepes pH 7.5, 10 mM […], 1 mM EGTA, 0.02% Brij35, 0.02 mg/ml BSA, 0.1 mM Na3VO4, 2 mM DTT, 1% DMSO. Compounds were delivered into the reaction, followed […] later by addition of a mixture of ATP (Sigma, St. Louis MO) and ^33P ATP (Perkin Elmer, Waltham MA) to a final concentration of 10 μM. Reactions were carried out at room temperature for 120 min, followed by spotting of the reactions onto P81 ion exchange filter paper (Whatman Inc., Piscataway, NJ). Unbound phosphate was removed by extensive washing of filters in 0.75% phosphoric acid. […] IC50 values and curve fits were obtained using Prism (GraphPad Software).

In the next assay the target is EGFR (D770_N771insNPG) (Homo sapiens (Human), UniProt P00533, INS770NPG). Briefly: HotSpot radiometric kinase assay, EGFR (D770_N771insNPG). The note with it: 10 μM ATP, read-out: EGFR (Δ770_N771insNPG) IC50. In a few lines: as §1
Sequence of EGFR (D770_N771insNPG) (P00533 other isoform, or with tags, fused parts or gaps del 1-668/ins NPG behind 770 limits assumed): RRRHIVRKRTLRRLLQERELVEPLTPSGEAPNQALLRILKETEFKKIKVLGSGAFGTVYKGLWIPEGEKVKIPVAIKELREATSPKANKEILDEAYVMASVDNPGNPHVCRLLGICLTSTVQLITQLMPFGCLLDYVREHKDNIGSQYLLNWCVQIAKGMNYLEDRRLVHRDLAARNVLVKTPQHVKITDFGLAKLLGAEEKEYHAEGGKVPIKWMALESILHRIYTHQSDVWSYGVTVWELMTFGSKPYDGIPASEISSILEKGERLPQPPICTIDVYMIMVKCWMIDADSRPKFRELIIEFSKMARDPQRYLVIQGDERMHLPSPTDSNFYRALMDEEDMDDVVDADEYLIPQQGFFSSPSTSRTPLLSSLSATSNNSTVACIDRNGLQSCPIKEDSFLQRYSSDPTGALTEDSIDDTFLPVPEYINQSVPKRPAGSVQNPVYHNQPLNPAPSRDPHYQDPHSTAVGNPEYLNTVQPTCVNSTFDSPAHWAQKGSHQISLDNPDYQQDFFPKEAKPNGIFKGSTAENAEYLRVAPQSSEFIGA

By IC50 is commonly meant the point on the concentration scale where inhibition reaches its midpoint.

Sequence of EGFR WT (P00533 25-1210): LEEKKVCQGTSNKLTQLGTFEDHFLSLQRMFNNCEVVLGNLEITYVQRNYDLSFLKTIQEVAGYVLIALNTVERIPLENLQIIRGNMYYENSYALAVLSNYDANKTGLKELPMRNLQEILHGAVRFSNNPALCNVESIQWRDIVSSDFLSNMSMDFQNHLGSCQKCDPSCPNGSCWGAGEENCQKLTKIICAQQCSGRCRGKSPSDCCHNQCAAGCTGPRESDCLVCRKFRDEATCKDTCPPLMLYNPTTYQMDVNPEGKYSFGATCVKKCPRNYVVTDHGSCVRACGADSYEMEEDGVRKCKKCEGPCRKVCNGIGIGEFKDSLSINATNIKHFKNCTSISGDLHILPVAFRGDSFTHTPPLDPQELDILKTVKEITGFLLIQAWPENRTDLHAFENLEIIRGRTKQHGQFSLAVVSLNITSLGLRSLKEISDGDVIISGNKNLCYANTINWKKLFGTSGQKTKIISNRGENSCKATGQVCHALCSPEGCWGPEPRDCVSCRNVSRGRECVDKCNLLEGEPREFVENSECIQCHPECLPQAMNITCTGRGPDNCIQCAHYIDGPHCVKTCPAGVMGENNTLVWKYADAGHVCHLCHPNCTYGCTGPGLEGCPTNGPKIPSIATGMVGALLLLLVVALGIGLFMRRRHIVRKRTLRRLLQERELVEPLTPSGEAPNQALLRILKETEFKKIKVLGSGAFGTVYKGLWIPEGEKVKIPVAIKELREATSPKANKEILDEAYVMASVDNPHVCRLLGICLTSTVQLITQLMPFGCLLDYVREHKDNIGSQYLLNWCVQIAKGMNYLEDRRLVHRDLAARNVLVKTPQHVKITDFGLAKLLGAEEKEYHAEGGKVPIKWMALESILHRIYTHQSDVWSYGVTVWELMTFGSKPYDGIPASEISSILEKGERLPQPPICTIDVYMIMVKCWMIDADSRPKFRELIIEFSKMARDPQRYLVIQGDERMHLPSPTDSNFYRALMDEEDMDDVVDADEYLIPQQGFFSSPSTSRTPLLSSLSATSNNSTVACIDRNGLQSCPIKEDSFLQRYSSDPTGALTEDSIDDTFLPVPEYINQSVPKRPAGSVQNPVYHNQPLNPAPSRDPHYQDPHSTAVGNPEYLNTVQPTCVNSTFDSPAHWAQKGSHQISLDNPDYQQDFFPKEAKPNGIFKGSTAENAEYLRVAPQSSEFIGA
Sequence of EGFR Δ746-750 mutant (P00533 other isoform, or with tags, fused parts or gaps del 1-668/del 746-750 limits assumed): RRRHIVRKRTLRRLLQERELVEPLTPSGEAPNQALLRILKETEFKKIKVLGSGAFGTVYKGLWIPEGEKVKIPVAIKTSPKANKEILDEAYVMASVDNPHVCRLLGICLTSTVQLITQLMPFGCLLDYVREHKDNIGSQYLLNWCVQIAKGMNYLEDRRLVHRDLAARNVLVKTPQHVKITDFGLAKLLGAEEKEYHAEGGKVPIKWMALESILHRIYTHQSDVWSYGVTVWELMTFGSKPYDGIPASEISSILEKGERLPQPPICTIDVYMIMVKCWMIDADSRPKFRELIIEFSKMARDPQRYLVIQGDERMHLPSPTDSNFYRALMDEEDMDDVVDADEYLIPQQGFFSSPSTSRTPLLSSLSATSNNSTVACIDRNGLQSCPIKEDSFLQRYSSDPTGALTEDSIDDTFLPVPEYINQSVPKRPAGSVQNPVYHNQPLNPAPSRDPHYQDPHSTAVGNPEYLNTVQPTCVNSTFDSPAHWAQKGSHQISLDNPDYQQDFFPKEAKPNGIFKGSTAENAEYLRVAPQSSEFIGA

Regarding `CC(C)Oc1nn(CCO)c2c1/C=C/c1n[nH]c3ccc(cc13)-c1cnn(C)c1O[C@H](C)[C@H]1CCCN1C2` [Example 253, 2-[(8aR,9R,19E)-9,11-dimethyl-1-[(propan-2-yl)oxy]-7,8,8a,9,11,17-hexahydro-6H-14,16-ethenotripyrazolo[3,4-f:3′,4′-j:4″,3″-n]pyrrolo[2,1-c][1,4]oxazacyclopentadecin-3(4H)-yl]ethan-1-ol], the 50% inhibitory concentration (IC50) was found to be 5.27 nM in assay [1]; 0.75 nM against EGFR Δ746-750 mutant; 1.66 nM against EGFR L858R mutant; 1.63 nM on EGFR WT; 1.98 nM in assay [2]; 2.55 nM at EGFR L858R/T790M mutant. Further, the half-maximal inhibitory concentration (IC50) on EGFR (D770_N771insNPG) stood at 3.21 nM.

As to `Cc1nn([C@H]2CC[C@@H]2O)c2c1/C=C/c1n[nH]c3ccc(cc13)-c1cnn(C)c1OCCCO2` (racemic) [Example 78, (rac)-2-[(17E)-8,16-dimethyl-2,8,11,12-tetrahydro-10H,14H-3,5-etheno[1,5]dioxacyclopentadecino[10,11-c:15,14-c′:6,7-c″ ]tripyrazol-14-yl]cyclobutan-1-ol], the IC50 in assay [1] was 296 nM; on EGFR Δ746-750 mutant, 212 nM; at EGFR L858R mutant, 688 nM; at EGFR WT, more than 1000 nM; in assay [2], 775 nM; against EGFR L858R/T790M mutant, 206 nM. In addition, the 50% inhibitory concentration (IC50) at EGFR (D770_N771insNPG) is 910 nM.

`Cc1nn([C@H]2C[C@@H](NCCN(C)C)C2)c2c1/C=C/c1n[nH]c3ccc(cc13)-c1cnn(C)c1OCCCO2` [Example 108, N^2-{(1s,3s)-3-[(17E)-8,16-dimethyl-2,8,11,12-tetrahydro-10H,14H-3,5-etheno[1,5]dioxacyclopentadecino[10,11-c:15,14-c′:6,7-c″]tripyrazol-14-yl]cyclobutyl}-N^1,N^1-dimethylethane-1,2-diamine]: the IC50 stood at 11.9 nM in assay [1]; 30.9 nM against EGFR Δ746-750 mutant; 26.2 nM against EGFR L858R mutant; 101 nM on EGFR WT; 49.2 nM in assay [2]; 3.86 nM at EGFR L858R/T790M mutant. In addition, the 50% inhibitory concentration (IC50) on EGFR (D770_N771insNPG) came to 103 nM.

On to `Cc1nn(CCO)c2c1/C=C/c1n[nH]c3ccc(cc13)-c1cnn(C)c1OC(C1CCC1)CN(C)C2` (centres unmarked) [Example 152, 2-[(17E)-10-cyclobutyl-8,12,16-trimethyl-2,8,10,11,12,13-hexahydro-14H-3,5-ethenotripyrazolo[3,4-f:3′,4′-j:4″,3″-n][1,4]oxazacyclopentadecin-14-yl]ethan-1-ol], for which the half-maximal inhibitory concentration (IC50) in assay [1] amounted to 0.62 nM; against EGFR Δ746-750 mutant, 61.5 nM; on EGFR L858R mutant, 20.7 nM; against EGFR WT it was 112 nM; in assay [2], 86.4 nM; against EGFR L858R/T790M mutant, 0.58 nM. Further, the IC50 on EGFR (D770_N771insNPG) worked out at 94.5 nM.

With `CCc1nn(CCN2CC[C@H](O)C2)c2c1/C=C/c1n[nH]c3ccc(cc13)-c1cnn(C)c1OCCCO2` [Example 69, (3S)-1-{2-[(17E)-16-ethyl-8-methyl-2,8,11,12-tetrahydro-10H,14H-3,5-etheno[1,5]dioxacyclopentadecino[10,11-c:15,14-c′:6,7-c″]tripyrazol-14-yl]ethyl}pyrrolidin-3-ol], the IC50 is 25.6 nM in assay [1]; 93 nM against EGFR Δ746-750 mutant; 121 nM on EGFR L858R mutant; 405 nM against EGFR WT; 92.4 nM in assay [2]; 14.9 nM at EGFR L858R/T790M mutant. The concentration for half-maximal inhibition (IC50) at EGFR (D770_N771insNPG) is 306 nM.

Turning to `CCOc1nn(CCO)c2c1/C=C/c1n[nH]c3ccc(cc13)-c1c(C)nn(C)c1O[C@H](C)CN(C1CC1)C2` [Example 204], the IC50 in assay [1] worked out at 2.53 nM; on EGFR Δ746-750 mutant it was 1.85 nM; at EGFR L858R mutant, 5.5 nM; at EGFR WT, 5.49 nM; in assay [2] it was 1.93 nM; on EGFR L858R/T790M mutant, 1.77 nM. Besides, the 50% inhibitory concentration (IC50) on EGFR (D770_N771insNPG) worked out at 20.1 nM.

Consider `Cc1nn([C@H]2CCOC[C@@H]2O)c2c1/C=C/c1n[nH]c3ccc(cc13)-c1cnn(C)c1OCCCO2` (racemic) [Example 85, (rac)-1,5-anhydr-3o-2,3-dideoxy-3-[(17E)-8,16-dimethyl-2,8,11,12-tetrahydro-10H,14H-3,5-etheno[1,5]dioxacyclopentadecino[10,11-c:15,14-c′:6,7-c″ ]tripyrazol-14-yl]-L-threo-pentitol], for which the IC50 (in assay [1]; against EGFR Δ746-750 mutant; against EGFR L858R mutant; on EGFR WT; in assay [2]; against EGFR L858R/T790M mutant) was more than 1000 nM in each case. Moreover, on EGFR (D770_N771insNPG), the IC50 is more than 1000 nM.

Regarding `Cc1c2c(nn1[C@H]1CCOC[C@@H]1O)OCCCOc1c(cnn1C)-c1ccc3[nH]nc(c3c1)/C=C/2` (racemic) [Example 87, (rac)-1,5-anhydro-2,3-dideoxy-3-[(17E)-8,16-dimethyl-2,8,11,12-tetrahydro-10H,15H-3,5-etheno[1,5]dioxacyclopentadecino[10,11-c:15,14-c′:6,7-c″ ]tripyrazol-15-yl]-L-threo-pentitol], the IC50 (in assay [1]; against EGFR Δ746-750 mutant; on EGFR L858R mutant; against EGFR WT; in assay [2]; against EGFR L858R/T790M mutant) was more than 1000 nM throughout. Further, at EGFR (D770_N771insNPG), the IC50 was more than 1000 nM.

For `Cc1nn(CCN2CCCC2)c2c1/C=C/c1n[nH]c3ccc(cc13)-c1cnn(C)c1C(C)OCCO2` (centres unmarked) [Example 100, (17E)-8,9,16-trimethyl-14-[2-(pyrrolidin-1-yl)ethyl]-2,8,9,11,12,14-hexahydro-3,5-etheno[1,4]dioxacyclopentadecino[11,10-c:15,14-c′:6,7-c″]tripyrazole], the IC50 stood at 19.2 nM in assay [1]; 198 nM against EGFR Δ746-750 mutant; 87.7 nM against EGFR L858R mutant; 290 nM against EGFR WT; 91 nM in assay [2]; 10.4 nM on EGFR L858R/T790M mutant. Besides, the concentration for half-maximal inhibition (IC50) on EGFR (D770_N771insNPG) stood at 250 nM.

On to `Cc1nn(C2CCN(C)C2)c2c1/C=C/c1n[nH]c3ccc(cc13)-c1cnn(C)c1CN(C)CCO2` (centres unmarked) [Example 118, (17E)-8,10,16-trimethyl-14-(1-methylpyrrolidin-3-yl)-2,9,10,11,12,14-hexahydro-8H-3,5-ethenotripyrazolo[3,4-f:4′,3′-j:4″,3″-n][1,4]oxazacyclopentadecine], for which the IC50 in assay [1] was 8.42 nM; on EGFR Δ746-750 mutant, 21.1 nM; against EGFR L858R mutant, 34.4 nM; against EGFR WT, 130 nM; in assay [2], 31.7 nM; at EGFR L858R/T790M mutant it was 4.65 nM. The 50% inhibitory concentration (IC50) at EGFR (D770_N771insNPG) turned out to be 65.7 nM.

Take `C[C@H]1CN(C)Cc2c(c(CN(C)C)nn2CCO)/C=C/c2n[nH]c3ccc(cc23)-c2cnn(C)c2O1` [Ex. 266, 2-{(10S,17E)-16-[(dimethylamino)methyl]-8,10,12-trimethyl-2,8,10,11,12,13-hexahydro-14H-3,5-ethenotripyrazolo[3,4-f:3′,4′-j:4″,3″-n][1,4]oxazacyclopentadecin-14-yl}ethan-1-ol]: the IC50 is 60.4 nM in assay [1]; 971 nM against EGFR Δ746-750 mutant; more than 1000 nM on EGFR L858R mutant; more than 1000 nM on EGFR WT; 577 nM in assay [2]; 282 nM against EGFR L858R/T790M mutant. In addition, the IC50 at EGFR (D770_N771insNPG) was more than 1000 nM.
